ChEMBL document CHEMBL2074067, “TP-search Transporter Database” (J Physiol, 1994)

Molecular target: ATP-dependent translocase ABCB1 (Homo sapiens, UniProt P08183)
Experiment: TP_TRANSPORTER: transepithelial transport (basal to apical) in Caco-2 cells
Format: functional, cell-based

ATP-dependent translocase ABCB1, sequence (P08183 whole entry): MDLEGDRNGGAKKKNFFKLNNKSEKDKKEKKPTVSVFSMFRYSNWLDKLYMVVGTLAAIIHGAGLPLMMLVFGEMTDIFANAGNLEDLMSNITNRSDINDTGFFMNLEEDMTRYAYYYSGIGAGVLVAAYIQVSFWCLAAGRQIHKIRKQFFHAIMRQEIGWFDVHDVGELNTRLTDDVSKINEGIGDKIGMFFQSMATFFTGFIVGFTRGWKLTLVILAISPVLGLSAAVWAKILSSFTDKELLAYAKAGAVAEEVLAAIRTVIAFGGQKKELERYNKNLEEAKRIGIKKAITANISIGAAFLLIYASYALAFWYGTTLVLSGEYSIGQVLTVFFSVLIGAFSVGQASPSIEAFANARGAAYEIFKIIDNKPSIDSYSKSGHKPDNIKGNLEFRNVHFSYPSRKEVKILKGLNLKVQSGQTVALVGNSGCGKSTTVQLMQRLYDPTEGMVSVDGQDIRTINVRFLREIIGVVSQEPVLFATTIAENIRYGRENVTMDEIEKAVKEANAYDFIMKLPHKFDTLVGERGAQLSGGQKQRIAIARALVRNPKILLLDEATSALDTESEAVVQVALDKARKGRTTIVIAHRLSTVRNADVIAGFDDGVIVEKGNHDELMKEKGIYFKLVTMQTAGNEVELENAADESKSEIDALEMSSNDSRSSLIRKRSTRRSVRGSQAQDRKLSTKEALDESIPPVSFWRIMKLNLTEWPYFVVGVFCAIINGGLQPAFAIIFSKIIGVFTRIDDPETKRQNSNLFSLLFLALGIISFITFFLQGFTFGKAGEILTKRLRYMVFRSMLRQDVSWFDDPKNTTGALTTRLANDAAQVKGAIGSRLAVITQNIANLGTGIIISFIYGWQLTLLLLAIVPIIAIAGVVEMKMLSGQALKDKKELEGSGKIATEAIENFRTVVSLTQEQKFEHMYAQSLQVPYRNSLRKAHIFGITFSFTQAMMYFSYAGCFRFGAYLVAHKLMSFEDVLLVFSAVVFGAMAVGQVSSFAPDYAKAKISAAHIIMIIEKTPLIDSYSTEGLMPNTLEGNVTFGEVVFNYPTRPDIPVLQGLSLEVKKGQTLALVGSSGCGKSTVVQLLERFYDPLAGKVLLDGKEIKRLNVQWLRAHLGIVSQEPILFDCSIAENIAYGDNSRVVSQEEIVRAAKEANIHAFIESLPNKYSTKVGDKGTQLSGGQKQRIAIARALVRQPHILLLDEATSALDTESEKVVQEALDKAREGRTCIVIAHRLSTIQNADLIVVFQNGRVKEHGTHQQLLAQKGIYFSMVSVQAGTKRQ

## CNC(=C[N+](=O)[O-])NCCSCc1ccc(CN(C)C)o1 [RANITIDINE]
  Activity: substrate [+]
